How the values were obtained:
Assay in all cases: In vitro antifungal activity, microbroth dilution MIC
Assay type in all cases: cell-based
[1] = system: Aspergillus furnigatus B. 19119; details: 4 to 48 hours; for Minimal inhibitory concentration (MIC): A furnigatus B. 19119, RPMI-1640, 35° C.; for Minimal inhibitory concentration(MIC), A furnigatus B. 19119: RPMI-1640, 35° C., no growth observed
Outline: (§1)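 Broth microdilution adapted from NCCLS M27, in RPMI-1640 with 0.165 M MOPS, pH 7.0. Yeast or mould inoculum at 2×10^3 CFU/ml was mixed 1:1 with DMSO-derived compound solutions (200 to 0.10 μg/ml before mixing) and incubated at 35 °C for 4 to 48 h. MIC was the concentration showing no growth.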

[2] = system: Aspergillus niger A. 16404; details: 4 to 48 hours; for Minimal inhibitory concentration (MIC): A. niger A. 16404, RPMI-1640, 35° C.; for Minimal inhibitory concentration(MIC), A. niger A. 16404: RPMI-1640, 35° C., no growth observed
Outline: as §1

[3] = system: Candida albicans A. 10231; details: C. albicans A. 10231, RPMI-1640, 35° C., 4 to 48 hours
Outline: as §1

Candida albicans C1-2 = details: C. albicans C1-2, RPMI-1640, 35° C., 4 to 48 hours
Outline: as §1

[4] = system: Candida albicans IFO. 1385; details: 4 to 48 hours; for Minimal inhibitory concentration (MIC): C. albicans IFO. 1385, RPMI-1640, 35° C.; for Minimal inhibitory concentration(MIC), C. albicans IFO. 1385: RPMI-1640, 35° C., no growth observed
Outline: as §1

Candida krusei K. 11655 = details: 4 to 48 hours; for Minimal inhibitory concentration (MIC): C. krusei K. 11655, RPMI-1640, 35° C.; for Minimal inhibitory concentration(MIC), C. krusei K. 11655: RPMI-1640, 35° C., no growth observed
Outline: as §1

[5] = system: Candida parapsitosis A. 7330; details: 4 to 48 hours; for Minimal inhibitory concentration (MIC): C. parapsitosis A. 7330, RPMI-1640, 35° C.; for Minimal inhibitory concentration(MIC), C. parapsitosis A. 7330: RPMI-1640, 35° C., no growth observed
Outline: as §1

[6] = system: Candida pseudotropicalis K. 11658; details: 4 to 48 hours; for Minimal inhibitory concentration (MIC): C. pseudotropicalis K. 11658, RPMI-1640, 35° C.; for Minimal inhibitory concentration(MIC), C. pseudotropicalis K. 11658: RPMI-1640, 35° C., no growth observed
Outline: as §1

[7] = system: Candida tropicalis A. 13803; details: 4 to 48 hours; for Minimal inhibitory concentration (MIC): C. tropicalis A. 13803, RPMI-1640, 35° C.; for Minimal inhibitory concentration(MIC), C. tropicalis A. 13803: RPMI-1640, 35° C., no growth observed
Outline: as §1

[8] = system: Cryptococcus neoformans A. 34144; details: 4 to 48 hours; for Minimal inhibitory concentration (MIC): Cry. neoformans A. 34144, RPMI-1640, 35° C.; for Minimal inhibitory concentration(MIC), Cry. neoformans A. 34144: RPMI-1640, 35° C., no growth observed
Outline: as §1

[9] = system: Cryptococcus neoformans B. 42419; details: 4 to 48 hours; for Minimal inhibitory concentration (MIC): Cry. neoformans B. 42419, RPMI-1640, 35° C.; for Minimal inhibitory concentration(MIC), Cry. neoformans B. 42419: RPMI-1640, 35° C., no growth observed
Outline: as §1

[10] = system: Cryptococcus neoformans IFM. 40092; details: 4 to 48 hours; for Minimal inhibitory concentration (MIC): Cry. neoformans IFM. 40092, RPMI-1640, 35° C.; for Minimal inhibitory concentration(MIC), Cry. neoformans IFM. 40092: RPMI-1640, 35° C., no growth observed
Outline: as §1

[11] = system: Torulopsis glabrata B. 16205; details: 4 to 48 hours; for Minimal inhibitory concentration (MIC): T. glabrata B. 16205, RPMI-1640, 35° C.; for Minimal inhibitory concentration(MIC), T. glabrata B. 16205: RPMI-1640, 35° C., no growth observed
Outline: as §1

[12] = system: Trichophyton mentagrophytes A. 9129; details: 4 to 48 hours; for Minimal inhibitory concentration (MIC): T. mentagrophytes A. 9129, RPMI-1640, 35° C.; for Minimal inhibitory concentration(MIC), T. mentagrophytes A. 9129: RPMI-1640, 35° C., no growth observed
Outline: as §1

[13] = system: Trichophyton mentagrophytes B. 32663; details: 4 to 48 hours; for Minimal inhibitory concentration (MIC): T. mentagrophytes B. 32663, RPMI-1640, 35° C.; for Minimal inhibitory concentration(MIC), T. mentagrophytes B. 32663: RPMI-1640, 35° C., no growth observed
Outline: as §1

| Minimal inhibitory concentration (MIC) [1] | Minimal inhibitory concentration (MIC) [2] | Minimal inhibitory concentration (MIC) [3] | Minimal inhibitory concentration (MIC) (Candida albicans C1-2) | Minimal inhibitory concentration (MIC) [4] | Minimal inhibitory concentration (MIC) (Candida krusei K. 11655) | Minimal inhibitory concentration (MIC) [5] | Minimal inhibitory concentration (MIC) [6] | Minimal inhibitory concentration (MIC) [7] | Minimal inhibitory concentration (MIC) [8] | Minimal inhibitory concentration (MIC) [9] | Minimal inhibitory concentration (MIC) [10] | Minimal inhibitory concentration (MIC) [11] | Minimal inhibitory concentration (MIC) [12] | Minimal inhibitory concentration (MIC) [13] | Minimal inhibitory concentration(MIC), A furnigatus B. 19119 [1] | Minimal inhibitory concentration(MIC), A. niger A. 16404 [2] | Minimal inhibitory concentration(MIC), C. albicans IFO. 1385 [4] | Minimal inhibitory concentration(MIC), C. krusei K. 11655 (Candida krusei K. 11655) | Minimal inhibitory concentration(MIC), C. parapsitosis A. 7330 [5] | SMILES | other results |
| --- | --- | --- | --- | --- | --- | --- | --- | --- | --- | --- | --- | --- | --- | --- | --- | --- | --- | --- | --- | --- | --- |
| 6.25 µg/mL | >100 µg/mL | 12.5 µg/mL | 12.5 µg/mL | 0.39 µg/mL | 100 µg/mL | >100 µg/mL | 50.0 µg/mL | 100 µg/mL | 0.78 µg/mL | 0.39 µg/mL | ≦0.10 μg/ml | 6.25 µg/mL | 6.25 µg/mL | 3.13 µg/mL |  |  |  |  |  | FC(OCC1COC(Cn2ccnc2)(c2ccc(F)cc2F)O1)=C(c1ccc(F)cc1)C(F)(F)F (mixture of isomers) [Ex. 66] |  |
| 3.13 µg/mL | 100 µg/mL | 12.5 µg/mL | 12.5 µg/mL | 0.78 µg/mL | 50.0 µg/mL | 100 µg/mL | 25.0 µg/mL | 100 µg/mL | 1.56 µg/mL | 1.56 µg/mL | 0.20 µg/mL | 6.25 µg/mL | 6.25 µg/mL | 1.56 µg/mL |  |  |  |  |  | FC(OCC1COC(Cn2ccnc2)(c2ccc(F)cc2F)O1)=C(c1cc(Cl)cc(Cl)c1)C(F)(F)F (mixture of isomers) [Ex. 67] |  |
| 1.56 µg/mL | 12.5 µg/mL | 6.25 µg/mL | 12.5 µg/mL | 0.78 µg/mL | 50.0 µg/mL | >100 µg/mL | 25.0 µg/mL | 50.0 µg/mL | 1.56 µg/mL | 0.78 µg/mL | ≦0.10 μg/ml | 3.13 µg/mL | 1.56 µg/mL | 1.56 µg/mL |  |  |  |  |  | FC(OCC1COC(Cn2ccnc2)(c2ccc(F)cc2F)O1)=C(c1cccs1)C(F)(F)F (mixture of isomers) [Ex. 68] |  |
| 6.25 µg/mL | 6.25 µg/mL | 25.0 µg/mL | 25.0 µg/mL | 3.13 µg/mL | 12.5 µg/mL | >100 µg/mL | 6.25 µg/mL | >100 µg/mL | 3.13 µg/mL | 1.56 µg/mL | 0.39 µg/mL | 25 µg/mL | 0.78 µg/mL | 0.39 µg/mL |  |  |  |  |  | FC(=Cc1ccccc1)OCC1COC(Cn2cncn2)(c2ccc(Cl)cc2Cl)O1 (mixture of isomers) [Ex. 69] |  |
| 50.0 µg/mL | 100 µg/mL | 25.0 µg/mL | 25.0 µg/mL | 6.25 µg/mL | 100 µg/mL | >100 µg/mL | 50.0 µg/mL | 100 µg/mL | 3.13 µg/mL | 3.13 µg/mL | 0.78 µg/mL | 25.0 µg/mL | 3.13 µg/mL | 3.13 µg/mL |  |  |  |  |  | Cc1cccc(C=C(F)OCC2COC(Cn3cncn3)(c3ccc(Cl)cc3Cl)O2)c1 (mixture of isomers) [Ex. 70] |  |
|  |  | 50.0 µg/mL | 50.0 µg/mL |  |  |  |  |  |  |  |  |  |  |  | 100 µg/mL | 100 µg/mL | 6.25 µg/mL | 100 µg/mL | 100 µg/mL | Cc1ccc(C=C(F)OCC2COC(Cn3cncn3)(c3ccc(Cl)cc3Cl)O2)cc1 (mixture of isomers) [Ex. 71] | Minimal inhibitory concentration(MIC), C. pseudotropicalis K. 11658 [6]: 25.0 µg/mL; Minimal inhibitory concentration(MIC), C. tropicalis A. 13803 [7]: 100 µg/mL; Minimal inhibitory concentration(MIC), Cry. neoformans A. 34144 [8]: 1.56 µg/mL; Minimal inhibitory concentration(MIC), Cry. neoformans B. 42419 [9]: 1.56 µg/mL; Minimal inhibitory concentration(MIC), Cry. neoformans IFM. 40092 [10]: 0.20 µg/mL; Minimal inhibitory concentration(MIC), T. glabrata B. 16205 [11]: 25.0 µg/mL; Minimal inhibitory concentration(MIC), T. mentagrophytes A. 9129 [12]: 6.25 µg/mL; Minimal inhibitory concentration(MIC), T. mentagrophytes B. 32663 [13]: 6.25 µg/mL |
|  |  | 250 µg/mL | 25.0 µg/mL |  |  |  |  |  |  |  |  |  |  |  | >100 µg/mL | >100 µg/mL | 1.56 µg/mL | 25.0 µg/mL | 100 µg/mL | CCc1ccc(C=C(F)OCC2COC(Cn3cncn3)(c3ccc(Cl)cc3Cl)O2)cc1 (mixture of isomers) [Ex. 72] | Minimal inhibitory concentration(MIC), C. pseudotropicalis K. 11658 [6]: 12.5 µg/mL; Minimal inhibitory concentration(MIC), C. tropicalis A. 13803 [7]: 25.0 µg/mL; Minimal inhibitory concentration(MIC), Cry. neoformans A. 34144 [8]: 3.13 µg/mL; Minimal inhibitory concentration(MIC), Cry. neoformans B. 42419 [9]: 3.13 µg/mL; Minimal inhibitory concentration(MIC), Cry. neoformans IFM. 40092 [10]: 1.56 µg/mL; Minimal inhibitory concentration(MIC), T. glabrata B. 16205 [11]: 25.0 µg/mL; Minimal inhibitory concentration(MIC), T. mentagrophytes A. 9129 [12]: 12.5 µg/mL; Minimal inhibitory concentration(MIC), T. mentagrophytes B. 32663 [13]: 12.5 µg/mL |
|  |  | 50.0 µg/mL | 50.0 µg/mL |  |  |  |  |  |  |  |  |  |  |  | >100 µg/mL | >100 µg/mL | 12.5 µg/mL | 100 µg/mL | >100 µg/mL | Cc1cc(C)cc(C=C(F)OCC2COC(Cn3cncn3)(c3ccc(Cl)cc3Cl)O2)c1 (mixture of isomers) [Ex. 73] | Minimal inhibitory concentration(MIC), C. pseudotropicalis K. 11658 [6]: 50.0 µg/mL; Minimal inhibitory concentration(MIC), C. tropicalis A. 13803 [7]: >100 µg/mL; Minimal inhibitory concentration(MIC), Cry. neoformans A. 34144 [8]: 12.5 µg/mL; Minimal inhibitory concentration(MIC), Cry. neoformans B. 42419 [9]: 6.25 µg/mL; Minimal inhibitory concentration(MIC), Cry. neoformans IFM. 40092 [10]: 1.56 µg/mL; Minimal inhibitory concentration(MIC), T. glabrata B. 16205 [11]: 50.0 µg/mL; Minimal inhibitory concentration(MIC), T. mentagrophytes A. 9129 [12]: 25.0 µg/mL; Minimal inhibitory concentration(MIC), T. mentagrophytes B. 32663 [13]: 25.0 µg/mL |
|  |  | 100 µg/mL | 100 µg/mL |  |  |  |  |  |  |  |  |  |  |  | >100 µg/mL | >100 µg/mL | 12.5 µg/mL | 100 µg/mL | >100 µg/mL | COc1ccc(C=C(F)OCC2COC(Cn3cncn3)(c3ccc(Cl)cc3Cl)O2)cc1 (mixture of isomers) [Ex. 74] | Minimal inhibitory concentration(MIC), C. pseudotropicalis K. 11658 [6]: 25.0 µg/mL; Minimal inhibitory concentration(MIC), C. tropicalis A. 13803 [7]: >100 µg/mL; Minimal inhibitory concentration(MIC), Cry. neoformans A. 34144 [8]: 6.25 µg/mL; Minimal inhibitory concentration(MIC), Cry. neoformans B. 42419 [9]: 3.13 µg/mL; Minimal inhibitory concentration(MIC), Cry. neoformans IFM. 40092 [10]: 0.78 µg/mL; Minimal inhibitory concentration(MIC), T. glabrata B. 16205 [11]: 50.0 µg/mL; Minimal inhibitory concentration(MIC), T. mentagrophytes A. 9129 [12]: 12.5 µg/mL; Minimal inhibitory concentration(MIC), T. mentagrophytes B. 32663 [13]: 12.5 µg/mL |
